We go through 19 molecules from US8497278B2, “Imidazo[1,2-a]pyridine compounds” (priority 2008, dated 2013).

Each structure is given as a SMILES string.

For the test, the system named is central benzodiazepine receptors. The experiment in a line: Central benzodiazepine receptor binding (test of Speth et al.). Particulars: 1000 nM of the compound. On the procedure: Compounds of the invention were assessed for their binding to the benzodiazepine receptor by the test of Speth et al. [Life Sci. 24, 351 (1979)] for central benzodiazepine receptors and LeFur et al. [Life Sci. 33, 449 (1983)] for peripheral receptors. The compounds were tested first at 1.0E-09, 1.0E-07 and 1.0E-05 M in single determination. […] The specific ligand binding to the receptor is defined as the difference between the total binding and the nonspecific binding determined in the presence of an excess of unlabelled ligand. In each experiment, the respective reference compound was tested concurrently with the test compounds in order to assess the assay suitability. It was tested at several concentrations (for IC50 value determination), and the data were compared with historical values. The assay was rendered valid if suitability criteria were met.
BZD central binding data for the compounds is provided in Table 3, wherein is provided the percent inhibition of central BZD in the presence of 1000 nM of the compound.
Take `Cc1ccc(-c2nc3ccc(C)cn3c2Cn2ccccc2=O)cc1` [Compound 96, 1-((6-methyl-2-p-tolyl-H-imidazo[1,2-a]pyridin-3-yl)methyl)pyridin-2(1H)-one]: the “% Inhibition at 1000 nM for CBZD” value is reported as “++ (percentage of inhibition of central BZD site binding is greater than 80% in the presence of 1000 nM of the compound)”.

For the molecule `NC(=O)c1nccn1Cc1c(-c2ccc(Cl)cc2)nc2cccnn12` [Compound 87, 1-((2-(4-chlorophenyl)imidazo[1,2-b]pyridazin-3-yl)methyl)-1H-imidazole-2-carboxamide], the “% Inhibition at 1000 nM for CBZD” value is “+ (percentage of inhibition of central BZD site binding is greater than 50% but less than 80% in the presence of 1000 nM of the compound)”.

As to `O=C1C=C(N2CCCCC2)CN1Cc1c(-c2ccc(Cl)cc2)nc2ccccn12` [Compound 239, 1-((2-(4-chlorophenyl)imidazo[1,2-a]pyridin-3-yl)methyl)-4-(piperidin-1-yl)-1H-pyrrol-2(5H)-one], the “% Inhibition at 1000 nM for CBZD” value is on record as “++ (percentage of inhibition of central BZD site binding is greater than 80% in the presence of 1000 nM of the compound)”.

As to `CC(C)(C)OC(=O)N1CCCC1c1ccnc(NCc2c(-c3ccc(F)cc3)nc3ccc(Cl)cn23)n1` (stereo not shown) [Compound 194, Tert-butyl 2-(2-((6-chloro-2-(4-fluorophenyl)imidazo[1,2-a]pyridin-3-yl)methylamino)pyrimidin-4-yl)pyrrolidine-1-carboxylate], the “% Inhibition at 1000 nM for CBZD” value is “+ (percentage of inhibition of central BZD site binding is greater than 50% but less than 80% in the presence of 1000 nM of the compound)”.

In the case of `Fc1ccc(-c2nc3ccc(F)cn3c2Cc2ncn[nH]2)cc1` [Compound 210, 3-((1H-1,2,4-triazol-5-yl)methyl)-6-fluoro-2-(4-fluorophenyl)imidazo[1,2-a]pyridine], the “% Inhibition at 1000 nM for CBZD” value is given as “++ (percentage of inhibition of central BZD site binding is greater than 80% in the presence of 1000 nM of the compound)”.

In the case of `Cc1ccc(-c2nc3ccc(C)cn3c2Cn2c(C)nc3ccccc32)cc1` [Compound 14, 2-Methyl-1-((6-methyl-2-p-tolylH-imidazo[1,2-a]pyridin-3-yl)methyl)-1H-benzo[d]imidazole], the “% Inhibition at 1000 nM for CBZD” value is “− (percentage of inhibition of central BZD site binding is less than 50% in the presence of 1000 nM of the compound)”.

As to `Fc1cc(F)nc(NCc2c(-c3ccccc3)nc3ccccn23)n1` [Compound 164, 4,6-difluoro-N-((2-phenylimidazo[1,2-a]pyridin-3-yl)methyl)pyrimidin-2-amine], the “% Inhibition at 1000 nM for CBZD” value was “++ (percentage of inhibition of central BZD site binding is greater than 80% in the presence of 1000 nM of the compound)”.

Turning to `Cc1ccc2nc(-c3ccc(Cl)cc3)c(Cc3nnc(C)o3)n2c1` [Compound 203, 2-((2-(4-chlorophenyl)-6-methylimidazo[1,2-a]pyridin-3-yl)methyl)-5-methyl-1,3,4-oxadiazole], the “% Inhibition at 1000 nM for CBZD” value is given as “++ (percentage of inhibition of central BZD site binding is greater than 80% in the presence of 1000 nM of the compound)”.

For the molecule `COC(=O)c1ncnn1Cc1c(-c2ccc(Cl)cc2)nc2ccccn12` [Compound 24, 2-[2-(4-Chloro-phenyl)-imidazo[1,2-a]pyridin-3-ylmethyl]-2H-[1,2,4]triazole-3-carboxylic acid methyl ester], the “% Inhibition at 1000 nM for CBZD” value is on record as “++ (percentage of inhibition of central BZD site binding is greater than 80% in the presence of 1000 nM of the compound)”.

In the case of `Cc1ccc(-c2nc3ccc(C)cn3c2CN2C(=O)CN(C)C2=O)cc1` [Compound 102, 1-methyl-3-((6-methyl-2-p-tolylH-imidazo[1,2-a]pyridin-3-yl)methyl)imidazolidine-2,4-dione], the “% Inhibition at 1000 nM for CBZD” value is “+ (percentage of inhibition of central BZD site binding is greater than 50% but less than 80% in the presence of 1000 nM of the compound)”.

Take `COC(=O)c1ncn(Cc2c(-c3ccccc3)nc3ccc(Cl)cn23)n1` [Compound 45, 1-(6-Chloro-2-phenyl-imidazo[1,2-a]pyridin-3-ylmethyl)-1H-[1,2,4]triazole-3-carboxylic acid methyl ester]: the “% Inhibition at 1000 nM for CBZD” value is given as “+ (percentage of inhibition of central BZD site binding is greater than 50% but less than 80% in the presence of 1000 nM of the compound)”.

With `Cc1ccc(-c2nc3ccc(C)cn3c2CNc2cnccn2)cc1` [Compound 144, N-((6-methyl-2-p-tolylH-imidazo[1,2-a]pyridin-3-yl)methyl)pyrazin-2-amine], the “% Inhibition at 1000 nM for CBZD” value was “++ (percentage of inhibition of central BZD site binding is greater than 80% in the presence of 1000 nM of the compound)”.

In the case of `O=c1ccc(Cl)cn1Cc1c(-c2ccc(Cl)cc2)nc2ccc(Cl)cn12` [Compound 108, 5-chloro-1-((6-chloro-2-(4-chlorophenyl)H-imidazo[1,2-a]pyridin-3-yl)methyl)pyridin-2(1H)-one], the “% Inhibition at 1000 nM for CBZD” value is recorded as “++ (percentage of inhibition of central BZD site binding is greater than 80% in the presence of 1000 nM of the compound)”.

On to `CNC(=O)c1nc2ccccc2n1Cc1c(-c2ccc(Cl)cc2)nc2ccccn12` [Compound 36, 1-((2-(4-chlorophenyl)imidazo[1,2-a]pyridin-3-yl)methyl)-N-methyl-1H-benzo[d]imidazole-2-carboxamide], for which the “% Inhibition at 1000 nM for CBZD” value is recorded as “+ (percentage of inhibition of central BZD site binding is greater than 50% but less than 80% in the presence of 1000 nM of the compound)”.

With `c1ccc(-c2nc3ccccn3c2Cn2nccn2)cc1` [Compound 51, 3-((2H-1,2,3-triazol-2-yl)methyl)-2-phenylH-imidazo[1,2-a]pyridine], the “% Inhibition at 1000 nM for CBZD” value was “++ (percentage of inhibition of central BZD site binding is greater than 80% in the presence of 1000 nM of the compound)”.

`Cc1ccc(-c2nc3ccc(C)cn3c2Cn2c(C)c(C)sc2=S)cc1` [Compound 130, 4,5-Dimethyl-3-(6-methyl-2-p-tolyl-imidazo[1,2-a]pyridin-3-ylmethyl)-3H-thiazole-2-thione]: the “% Inhibition at 1000 nM for CBZD” value is given as “++ (percentage of inhibition of central BZD site binding is greater than 80% in the presence of 1000 nM of the compound)”.

For `CNCCOc1nccc(NCc2c(-c3ccc(Cl)cc3)nc3ccccn23)n1` [Compound 185, N-((2-(4-chlorophenyl)imidazo[1,2-a]pyridin-3-yl)methyl)-2-(2-(methylamino)ethoxy)pyrimidin-4-amine], the “% Inhibition at 1000 nM for CBZD” value is listed as “++ (percentage of inhibition of central BZD site binding is greater than 80% in the presence of 1000 nM of the compound)”.

For the molecule `CCOC(=O)c1cc(C)nn1Cc1c(-c2ccc(Cl)cc2)nc2ccccn12` [Compound 28, Ethyl 1-((2-(4-chlorophenyl)imidazo[1,2-a]pyridin-3-yl)methyl)-3-methyl-1H-pyrazole-5-carboxylate], the “% Inhibition at 1000 nM for CBZD” value is given as “++ (percentage of inhibition of central BZD site binding is greater than 80% in the presence of 1000 nM of the compound)”.

For `Cc1ccc(-c2nc3ccc(C)cn3c2CSc2cccs2)cc1` [Compound 178, 6-Methyl-3-(thiophen-2-ylsulfanylmethyl)-2-p-tolyl-imidazo[1,2-a]pyridine], the “% Inhibition at 1000 nM for CBZD” value is given as “+ (percentage of inhibition of central BZD site binding is greater than 50% but less than 80% in the presence of 1000 nM of the compound)”.
